# Experiments:
# [1] = Metal ion selectivity of fluorescence response; type: physicochemical; settings: 1 μM sensor, 10 μM TPEN; against Na^+, K^+, Ca^2+, Mg^2+, Fe^2+, Ni^2+, Co^2+, Cu^2+, Mn^2+
# Description: To study the metal selectivity, the fluorescence of ZIGIR-1 (1 μM) or ZIGIR-2 (1 μM) was measured in the presence of 10 μM TPEN and an excess of metal ion including 1 mM KCl, 1 mM NaCl, 1 mM CaSO4, 1 mM MgSO4, 15 μM MnSO4, 15 μM FeSO4, 15 μM NiSO4, 15 μM CoCl2, 15 μM CuSO4, 15 μM CdSO4 or 15 μM ZnSO4. The emission intensity was normalized to that of 15 μM ZnSO4 (100%).
# MIN-6 cells = assay: Correlation of ZIGIR-2 labeling with insulin immunofluorescence; type: cell-based, mouse; settings: wide-field microscopy
# Description: Confocal imaging of ZIGIR-2 labeled MIN-6 cells appeared to be heterogenous, with numerous ZIGIR-2 positive puncta in some cells while few in others (FIG. 6B). The MIN-6 cell is a transformed β-cell line derived from a mouse insulinoma. […] To investigate how ZIGIR-2 staining correlates with the distribution of insulin granules, insulin immunofluorescence was performed on the same MIN-6 cells after ZIGIR-2 imaging. […] To further analyze MIN-6 cells that were differentially labeled with ZIGIR-2, and to address whether ZIGIR-2 staining correlated with other cellular organelles, MIN6 cells were separated into ZIGIR-2-High and ZIGIR-2-Low subsets based on ZIGIR-2 fluorescence intensity using fluorescence-activated cell sorting (FACS; FIG. 7E). The sorted cells were then compared by immunofluorescence using antibodies against insulin, NPC-1 (a marker protein of late endosome/lysosome; Patel et al., 1999 and Higgins et al., 1999), or GM130 (a Golgi marker protein; Nakamura et al., 1995). […]
# To correlate the intensity of ZIGIR-2 labeling and cellular insulin content by imaging, MIN-6 cells were first labeled and seeded on a 35 mm MatTek glass dish with ZIGIR-2. Cells were then imaged on a wide field fluorescence microscope (Axiovert 200, Carl Zeiss) equipped with an EMCCD camera (iXon 897, Andor) through a 40× oil objective. […]
# [2] = tested on: primary mouse islet cells; assay: Flow cytometry analysis and FACS of mouse islet cells labeled with ZIGIR-2 and Ex4-Cy5; type: cell-based
# Description: Among islet endocrine cells, β-cells have long been known to contain a high level of total Zn^2+ in their secretory granules. However, it remains unclear how Zn^2+ activities differ among different types of secretory granules including the glucagon granule and the somatostatin granule. To address the question, the inventors combined ZIGIR-2 and flow cytometry to analyze the granular Zn^2+ activity in primary mouse islet cells. To facilitate distinguishing different endocrine cells, they labeled mouse islets with a β-cell marker, a Cy5 dye conjugate of Exendin-4 peptide (Ex4) (Scheme 3). Ex4 is a high affinity ligand of the glucagon like peptide 1 receptor (GLP-1R). Since GLP-1R is highly expressed in mouse islet β-cells,^46 fluorescently labeled conjugates of Ex4 are rapidly internalized into β-cells through receptor-mediated endocytosis to mark β-cells.^36, 47 After labeling mouse islets with Ex4-Cy5, the inventors dispersed the islets into single cells and labeled them with ZIGIR-2 (FIG. 10A). […] To identify each subset of cells, the inventors isolated them by FACS and analyzed the sorted cells by immunofluorescence using antibodies against insulin, glucagon, and somatostatin. The immunofluorescence result confirmed that P1 and P2 subsets were essentially pure β-cells (99±0.3%, N=3) and α-cells (98±0.5%, N=3), respectively (FIG. 10C). […] The remaining ˜20% of cells in P3 and most cells in P4 were not stained by any of the three hormone antibodies. These cells likely represented rare […], islet endothelial cells or lymphoid cells, and residual exocrine cells.
# Mouse islets were isolated as previously described (Li et al., 2011) by perfusing Collagenase P (Roche, 1.4 mg/mL in HBSS with 5 mM glucose) through the common bile duct. Following a 15 min digestion at 37° C., the pancreas digestion was washed twice with HBSS by centrifugation and the islets were hand-picked under a dissection scope. Isolated islets were cultured 2-4 hours in RPMI-1640 medium (GIBCO, #11875-093) supplemented with 10% (v/v) FBS, 2.0 mM sodium-pyruvate, 100 U/mL penicillin and […] at 37° C. in 5% CO2. To distinguish islet β-cells from non-β cells, islets were labeled with a fluorescently labeled exendin-4 derivative as previously described (Kim et al., 2017). Briefly, Ex4-Cy5 (100 nM) was added to the culture medium 2 hours before islet dispersion. ZIGIR labeling was carried out subsequently after islet dispersion. Mouse islets were dispersed with 0.05% Trypsin solution in DPBS at 37° C. for 15 min. The dispersed islet cells were incubated with 0.5 μM ZIGIR-1 (or ZIGIR-2) at 37° C. for 15 min in the cell sorting buffer (SAB Buffer containing 3 mM glucose, 0.5% BSA and 0.1 mg/mL DNase I (Roche)). The cells were then washed twice with ice-cold SAB and resuspended in the cell sorting buffer. The labeled cells were analyzed by flow cytometry on a LSRFortessa cell analyzer (BD Biosciences). DAPI (200 ng/mL) was added to the cell suspension prior to flow cytometry to distinguish live cells (DAPI negative) from dead cells (DAPI positive). Only live cells were analyzed.
# [3] = ZIGIR-2 and Ex4-Cy5 labeling, N=3
compound,measurement,setting,value
CN(C)c1ccc2c(-c3ccc(NCCN(CCc4ccccn4)Cc4ccccn4)cc3C(=O)[O-])c3ccc(=[N+](C)C)cc-3oc2c1 [ZIGIR-2],selectivity of fluorescence response for Zn^2+,[1],selective for Zn^2+
same,Pearson's R value of cellular ZIGIR-2 intensity versus insulin immunofluorescence,MIN-6 cells,0.79±0.05
same,median fluorescence intensity (MFI) in α-cells versus δ-cells,[2],nearly an order of magnitude stronger
same,"median fluorescence intensity (MFI) in α-cells, weaker than in β-cells",[2],about 5 times
same,α-cells in sorted P2 subset,[2]; [3],98±0.5%
same,β-cells in sorted P1 subset,[2]; [3],99±0.3%
same,δ-cells in sorted P3 subset,[2]; [3],81±4.8%
same,ability to resolve islet cells into subsets by granular Zn^2+ activity,[2]; compared with commercially available Zn^2+ sensors,able to resolve islet cells into distinct subsets

# — patent US11649228B2, “Zinc indicators for cellular imaging” (The Board of Regents of the University of Texas System, priority 2018, dated 2023)
